# Read-outs that look alike come from different tables or passages of the source.
# Experiments:
# Test in all cases: biochemical
# Set-up in all cases: Eurofins KinaseProfiler full panel at Km ATP, residual kinase activity (%) relative to DMSO
# TTBK1(h) = TTBK1(h) (Homo sapiens, UniProt Q5TCY1)
# Outline: (§1)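 Compounds screened at 10 µM in radiometric kinase activity assays at Km ATP, reported as remaining kinase activity (%). A KINOMEscan competition-binding screen at 10 µM measured DNA-tagged kinase retained on immobilized active-site ligand by qPCR.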
# IKKβ(h) = target: T1, IKKβ(h) (Homo sapiens, UniProt O14920)
# T1 construct: gene IKBKB
# T1 sequence (O14920 1-756): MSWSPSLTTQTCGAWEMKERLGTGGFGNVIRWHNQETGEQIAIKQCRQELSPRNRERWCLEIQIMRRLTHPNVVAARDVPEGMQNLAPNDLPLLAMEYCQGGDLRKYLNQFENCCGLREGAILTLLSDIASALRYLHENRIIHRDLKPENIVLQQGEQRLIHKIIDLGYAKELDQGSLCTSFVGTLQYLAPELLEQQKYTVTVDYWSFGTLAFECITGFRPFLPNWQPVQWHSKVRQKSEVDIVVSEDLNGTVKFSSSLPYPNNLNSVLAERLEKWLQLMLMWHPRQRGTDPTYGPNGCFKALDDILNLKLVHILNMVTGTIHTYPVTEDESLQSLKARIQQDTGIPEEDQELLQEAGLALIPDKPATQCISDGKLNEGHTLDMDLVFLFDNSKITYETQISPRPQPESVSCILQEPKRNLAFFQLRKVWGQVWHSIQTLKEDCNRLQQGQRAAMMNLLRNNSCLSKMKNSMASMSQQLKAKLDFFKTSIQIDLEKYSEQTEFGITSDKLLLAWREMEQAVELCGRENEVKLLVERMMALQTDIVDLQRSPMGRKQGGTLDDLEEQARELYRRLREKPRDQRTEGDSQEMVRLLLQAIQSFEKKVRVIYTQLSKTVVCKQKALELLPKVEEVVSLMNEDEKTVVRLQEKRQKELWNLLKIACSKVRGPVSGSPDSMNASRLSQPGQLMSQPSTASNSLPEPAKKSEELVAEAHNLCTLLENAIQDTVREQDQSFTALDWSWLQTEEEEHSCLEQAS
# Outline: as §1
# CaMKIß(h) = target: T2, CaMKIß(h) (Homo sapiens, UniProt Q6P2M8)
# T2 construct: gene PNCK
# Outline: as §1
# CK1δ(h) = target: T3, CK1δ(h) (Homo sapiens, UniProt P48730)
# T3 construct: gene CSNK1D
# Outline: as §1
# Txk(h) = target: T4, Txk(h) (Homo sapiens, UniProt P42681)
# T4 sequence (P42681 1-527): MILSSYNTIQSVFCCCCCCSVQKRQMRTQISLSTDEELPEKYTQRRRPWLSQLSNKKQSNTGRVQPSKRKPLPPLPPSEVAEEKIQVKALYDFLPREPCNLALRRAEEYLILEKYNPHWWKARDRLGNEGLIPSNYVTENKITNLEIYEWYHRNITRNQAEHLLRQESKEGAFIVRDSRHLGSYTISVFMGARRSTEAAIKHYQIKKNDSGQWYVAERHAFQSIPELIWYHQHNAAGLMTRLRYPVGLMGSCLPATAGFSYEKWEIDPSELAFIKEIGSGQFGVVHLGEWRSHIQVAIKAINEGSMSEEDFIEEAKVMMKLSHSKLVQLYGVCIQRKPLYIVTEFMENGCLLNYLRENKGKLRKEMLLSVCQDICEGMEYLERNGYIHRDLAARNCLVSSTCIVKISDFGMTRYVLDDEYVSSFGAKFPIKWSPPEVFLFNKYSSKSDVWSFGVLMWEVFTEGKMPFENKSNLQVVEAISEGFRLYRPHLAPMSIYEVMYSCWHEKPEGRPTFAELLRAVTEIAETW
# Outline: as §1
# VRK1(h) = target: T5, VRK1(h) (Homo sapiens, UniProt Q99986)
# T5 sequence (Q99986 1-396): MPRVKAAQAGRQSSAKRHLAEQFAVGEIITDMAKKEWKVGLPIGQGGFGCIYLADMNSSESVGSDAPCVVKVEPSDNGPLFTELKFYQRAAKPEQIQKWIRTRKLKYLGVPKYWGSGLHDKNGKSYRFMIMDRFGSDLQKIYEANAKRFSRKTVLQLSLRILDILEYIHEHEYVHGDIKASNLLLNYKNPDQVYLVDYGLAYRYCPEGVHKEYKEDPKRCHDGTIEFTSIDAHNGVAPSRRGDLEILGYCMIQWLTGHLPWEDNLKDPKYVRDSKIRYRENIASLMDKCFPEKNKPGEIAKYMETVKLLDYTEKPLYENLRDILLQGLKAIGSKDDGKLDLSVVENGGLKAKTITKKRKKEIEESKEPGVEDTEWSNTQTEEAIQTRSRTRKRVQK
# Outline: as §1
# MSK2(h) = target: T6, MSK2(h) (Homo sapiens, UniProt O75676)
# T6 construct: gene RPS6KA4
# Outline: as §1
# TrkB(h) = target: T7, TrkB(h) (Homo sapiens, UniProt Q16620)
# T7 construct: gene NTRK2
# Outline: as §1
# Rsk2(h) = target: T8, Rsk2(h) (Homo sapiens, UniProt P51812)
# T8 construct: gene RPS6KA3
# Outline: as §1
# [1] = read-out: Residual activity (%) Spautin-1 5aa
# [2] = read-out: Residual activity (%) 5as
# [3] = read-out: Residual activity (%) 5at
# [4] = read-out: Residual activity (%) 5ay
# T7 sequence (Q16620 whole entry): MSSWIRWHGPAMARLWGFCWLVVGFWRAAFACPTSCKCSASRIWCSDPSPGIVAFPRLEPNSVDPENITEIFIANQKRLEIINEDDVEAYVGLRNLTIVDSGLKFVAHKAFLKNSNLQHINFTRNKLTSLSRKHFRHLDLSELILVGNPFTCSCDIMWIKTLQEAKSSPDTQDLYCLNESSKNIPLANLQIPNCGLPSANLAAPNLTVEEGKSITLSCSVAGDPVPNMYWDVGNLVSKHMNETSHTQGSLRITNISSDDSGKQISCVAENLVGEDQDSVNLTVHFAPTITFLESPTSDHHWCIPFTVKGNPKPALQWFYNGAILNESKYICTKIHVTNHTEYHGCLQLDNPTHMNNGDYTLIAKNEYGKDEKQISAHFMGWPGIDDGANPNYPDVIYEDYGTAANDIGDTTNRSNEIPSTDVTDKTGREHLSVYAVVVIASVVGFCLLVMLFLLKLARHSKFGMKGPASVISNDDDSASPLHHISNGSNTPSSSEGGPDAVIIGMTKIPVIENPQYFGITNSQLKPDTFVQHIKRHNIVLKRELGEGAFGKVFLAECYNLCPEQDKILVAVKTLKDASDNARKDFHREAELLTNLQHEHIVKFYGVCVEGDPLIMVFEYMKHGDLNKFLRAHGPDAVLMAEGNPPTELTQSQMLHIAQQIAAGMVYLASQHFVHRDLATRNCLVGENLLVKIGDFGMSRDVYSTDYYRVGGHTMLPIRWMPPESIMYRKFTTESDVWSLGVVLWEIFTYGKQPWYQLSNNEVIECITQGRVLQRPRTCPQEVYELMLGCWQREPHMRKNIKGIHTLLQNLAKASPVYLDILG
# T8 sequence (P51812 whole entry): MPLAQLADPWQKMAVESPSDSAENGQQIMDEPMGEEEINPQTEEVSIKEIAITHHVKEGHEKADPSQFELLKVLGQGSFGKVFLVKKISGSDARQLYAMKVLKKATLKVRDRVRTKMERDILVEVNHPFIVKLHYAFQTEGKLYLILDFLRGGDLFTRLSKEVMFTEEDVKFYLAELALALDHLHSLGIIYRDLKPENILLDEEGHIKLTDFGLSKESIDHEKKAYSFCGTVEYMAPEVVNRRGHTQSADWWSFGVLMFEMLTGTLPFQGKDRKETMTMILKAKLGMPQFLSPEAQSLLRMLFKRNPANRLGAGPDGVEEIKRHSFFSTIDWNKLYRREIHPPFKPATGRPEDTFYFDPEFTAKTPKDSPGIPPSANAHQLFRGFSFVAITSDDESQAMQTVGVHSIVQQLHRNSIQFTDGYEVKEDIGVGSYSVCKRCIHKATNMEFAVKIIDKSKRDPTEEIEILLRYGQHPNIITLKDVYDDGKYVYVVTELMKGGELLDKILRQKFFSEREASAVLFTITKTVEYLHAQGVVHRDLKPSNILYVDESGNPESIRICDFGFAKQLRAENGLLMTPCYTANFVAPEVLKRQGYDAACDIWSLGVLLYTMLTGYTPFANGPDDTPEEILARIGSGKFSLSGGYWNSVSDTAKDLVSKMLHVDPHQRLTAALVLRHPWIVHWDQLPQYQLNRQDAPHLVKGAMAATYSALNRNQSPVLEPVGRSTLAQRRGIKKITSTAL
# T3 sequence (P48730 whole entry): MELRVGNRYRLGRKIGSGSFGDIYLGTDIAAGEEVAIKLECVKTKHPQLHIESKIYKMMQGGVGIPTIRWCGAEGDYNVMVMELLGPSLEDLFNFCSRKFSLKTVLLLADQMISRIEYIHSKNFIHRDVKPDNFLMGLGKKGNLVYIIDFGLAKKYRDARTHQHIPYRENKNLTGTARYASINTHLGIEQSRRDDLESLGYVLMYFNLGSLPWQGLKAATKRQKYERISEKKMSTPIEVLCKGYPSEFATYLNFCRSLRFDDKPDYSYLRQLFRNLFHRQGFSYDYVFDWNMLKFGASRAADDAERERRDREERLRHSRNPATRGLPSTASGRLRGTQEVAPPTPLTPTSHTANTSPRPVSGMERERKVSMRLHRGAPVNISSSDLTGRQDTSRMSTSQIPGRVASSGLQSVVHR
# Sequence of TTBK1(h) (Q5TCY1 whole entry): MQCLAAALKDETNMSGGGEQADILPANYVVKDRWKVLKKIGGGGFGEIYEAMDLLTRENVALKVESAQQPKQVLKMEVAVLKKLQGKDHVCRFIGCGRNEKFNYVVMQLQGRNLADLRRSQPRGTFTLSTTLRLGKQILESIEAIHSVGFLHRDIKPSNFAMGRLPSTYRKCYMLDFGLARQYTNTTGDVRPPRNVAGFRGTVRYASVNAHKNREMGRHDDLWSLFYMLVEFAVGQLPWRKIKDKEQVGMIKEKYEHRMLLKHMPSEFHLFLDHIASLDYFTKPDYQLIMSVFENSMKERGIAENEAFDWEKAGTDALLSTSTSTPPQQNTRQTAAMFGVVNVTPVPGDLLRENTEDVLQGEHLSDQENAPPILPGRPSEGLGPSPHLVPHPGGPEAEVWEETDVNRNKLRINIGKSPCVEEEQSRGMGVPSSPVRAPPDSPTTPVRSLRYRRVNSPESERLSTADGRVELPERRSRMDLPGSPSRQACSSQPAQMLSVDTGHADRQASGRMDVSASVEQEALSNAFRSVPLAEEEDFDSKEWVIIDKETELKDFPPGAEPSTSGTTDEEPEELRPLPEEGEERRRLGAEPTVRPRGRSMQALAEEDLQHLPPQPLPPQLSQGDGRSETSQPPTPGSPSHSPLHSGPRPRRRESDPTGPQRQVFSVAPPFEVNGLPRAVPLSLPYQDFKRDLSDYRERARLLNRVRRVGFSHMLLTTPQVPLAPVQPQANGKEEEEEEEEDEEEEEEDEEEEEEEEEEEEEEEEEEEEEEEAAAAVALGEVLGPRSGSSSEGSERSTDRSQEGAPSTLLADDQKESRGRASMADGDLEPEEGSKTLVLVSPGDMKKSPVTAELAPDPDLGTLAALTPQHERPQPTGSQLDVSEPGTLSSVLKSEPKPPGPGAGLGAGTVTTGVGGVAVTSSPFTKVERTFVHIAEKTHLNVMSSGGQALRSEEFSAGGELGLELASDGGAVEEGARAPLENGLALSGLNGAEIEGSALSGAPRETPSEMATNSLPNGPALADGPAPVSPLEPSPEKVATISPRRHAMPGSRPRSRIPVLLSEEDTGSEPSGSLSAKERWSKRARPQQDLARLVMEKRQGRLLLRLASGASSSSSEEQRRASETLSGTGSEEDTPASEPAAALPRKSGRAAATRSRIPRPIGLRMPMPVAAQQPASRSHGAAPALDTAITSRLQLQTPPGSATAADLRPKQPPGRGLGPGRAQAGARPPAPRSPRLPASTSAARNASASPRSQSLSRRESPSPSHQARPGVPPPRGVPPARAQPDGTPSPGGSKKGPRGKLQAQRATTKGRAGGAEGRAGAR
# T6 sequence (O75676 whole entry): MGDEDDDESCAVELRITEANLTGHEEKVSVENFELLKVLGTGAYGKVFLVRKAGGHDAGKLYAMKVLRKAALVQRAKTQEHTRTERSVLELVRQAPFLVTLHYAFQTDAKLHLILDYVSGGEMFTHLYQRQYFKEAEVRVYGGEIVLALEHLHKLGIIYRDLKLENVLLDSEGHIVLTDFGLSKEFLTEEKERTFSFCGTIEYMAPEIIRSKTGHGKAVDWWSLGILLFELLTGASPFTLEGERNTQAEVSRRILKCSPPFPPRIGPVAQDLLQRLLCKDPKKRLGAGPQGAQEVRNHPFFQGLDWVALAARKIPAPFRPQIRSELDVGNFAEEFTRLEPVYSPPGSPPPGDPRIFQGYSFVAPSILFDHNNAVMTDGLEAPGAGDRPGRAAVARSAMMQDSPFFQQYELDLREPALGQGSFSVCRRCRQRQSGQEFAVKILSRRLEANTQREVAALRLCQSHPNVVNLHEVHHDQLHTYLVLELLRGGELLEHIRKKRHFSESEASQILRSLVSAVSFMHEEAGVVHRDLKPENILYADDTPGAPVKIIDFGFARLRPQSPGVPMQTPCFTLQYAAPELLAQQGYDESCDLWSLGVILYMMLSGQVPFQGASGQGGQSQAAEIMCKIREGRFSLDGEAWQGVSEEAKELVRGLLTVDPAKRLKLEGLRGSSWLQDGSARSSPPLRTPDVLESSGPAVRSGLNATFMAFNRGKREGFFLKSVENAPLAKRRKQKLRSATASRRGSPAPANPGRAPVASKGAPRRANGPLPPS
# T2 sequence (Q6P2M8 whole entry): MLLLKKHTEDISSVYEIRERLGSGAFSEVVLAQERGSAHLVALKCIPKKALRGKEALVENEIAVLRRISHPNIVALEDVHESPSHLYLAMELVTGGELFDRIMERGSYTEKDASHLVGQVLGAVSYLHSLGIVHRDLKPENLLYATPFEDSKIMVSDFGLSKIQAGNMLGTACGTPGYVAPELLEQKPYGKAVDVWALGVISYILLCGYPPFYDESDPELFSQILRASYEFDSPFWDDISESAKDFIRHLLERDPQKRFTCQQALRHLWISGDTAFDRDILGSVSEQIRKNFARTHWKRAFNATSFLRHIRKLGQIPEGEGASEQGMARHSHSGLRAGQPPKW
smiles,measurement,setting,value
"Fc1ccc(CNc2ncnc3ccc(F)cc23)cc1 [5aa, 6-Fluoro-N-(4-fluorobenzyl)-4-Quinazolinamine]",remaining activity at 10 µM,TTBK1(h); [1],119%
same,remaining activity at 10 µM,IKKβ(h); [1],106%
same,remaining activity at 10 µM,CaMKIß(h); [1],85%
same,remaining activity at 10 µM,CK1δ(h); [1],74%
same,remaining activity at 10 µM,Txk(h); [1],92%
same,remaining activity at 10 µM,VRK1(h); [1],94%
same,remaining activity at 10 µM,MSK2(h); [1],91%
same,remaining activity at 10 µM,TrkB(h); [1],87%
same,remaining activity at 10 µM,Rsk2(h); [1],93%
"Fc1ccc(CCNc2ncnc3ccc(F)cc23)cc1 [5as, 6-Fluoro-N-[2-(4-Fluorophenyl)Ethyl]-4-Quinazolinamine]",remaining activity at 10 µM,TTBK1(h); [2],104%
same,remaining activity at 10 µM,IKKβ(h); [2],110%
same,remaining activity at 10 µM,CaMKIß(h); [2],84%
same,remaining activity at 10 µM,CK1δ(h); [2],80%
same,remaining activity at 10 µM,Txk(h); [2],83%
same,remaining activity at 10 µM,VRK1(h); [2],82%
same,remaining activity at 10 µM,MSK2(h); [2],96%
same,remaining activity at 10 µM,TrkB(h); [2],81%
same,remaining activity at 10 µM,Rsk2(h); [2],79%
"Fc1ccc2ncnc(NCCc3ccc(Cl)cc3)c2c1 [5at, N-[2-(4-Chlorophenyl)Ethyl]-6-Fluoro-4-Quinazolinamine]",remaining activity at 10 µM,TTBK1(h); [3],114%
same,remaining activity at 10 µM,IKKβ(h); [3],98%
same,remaining activity at 10 µM,CaMKIß(h); [3],81%
same,remaining activity at 10 µM,CK1δ(h); [3],80%
same,remaining activity at 10 µM,Txk(h); [3],82%
same,remaining activity at 10 µM,VRK1(h); [3],79%
same,remaining activity at 10 µM,MSK2(h); [3],97%
same,remaining activity at 10 µM,TrkB(h); [3],81%
same,remaining activity at 10 µM,Rsk2(h); [3],73%
"COc1ccc2ncnc(Nc3cccc(F)c3)c2c1 [5ay, N-(3-Fluorophenyl)-6-Methoxy-4-Quinazolinamine]",remaining activity at 10 µM,TTBK1(h); [4],112%
same,remaining activity at 10 µM,IKKβ(h); [4],107%
same,remaining activity at 10 µM,CaMKIß(h); [4],92%
same,remaining activity at 10 µM,CK1δ(h); [4],86%
same,remaining activity at 10 µM,Txk(h); [4],85%
same,remaining activity at 10 µM,VRK1(h); [4],89%
same,remaining activity at 10 µM,MSK2(h); [4],88%
same,remaining activity at 10 µM,TrkB(h); [4],96%
same,remaining activity at 10 µM,Rsk2(h); [4],70%
